Assay results reported in US12545673B2, “Imidazopyridine derivative and pharmaceutical composition comprising same as active ingredient” (TSD LIFE SCIENCES CO., LTD., priority 2019, dated 2026).
Where two headings read alike, the source gives them in different places.

What was measured:
[1] = test system: chronic myeloid leukemia cell line K562; assay: Cancer cell proliferation inhibitory activity evaluation 1 (CCK-8), K562; assay type: cell-based; conditions: Homo sapiens, read-out: Cancer cell proliferation inhibitory activity K562
Experimental: (§1) In order to identify whether the compound has anticancer activity, the human breast cancer cell line MDA-MB-231, the colorectal cancer cell line HT-29, the acute myeloid leukemia cell line U937, and the chronic myeloid leukemia cell line K562 were used. The cell line was cultured using RPMI-1640 medium containing 10% fetal bovine serum. Welgene products were used as the medium, and hyclone products were used for fetal bovine serum, and 1% of antibiotics for cell culture from Gibco were used as the culture medium.

[2] = test system: human breast cancer cell line MDA-MB-231; assay: Cancer cell proliferation inhibitory activity evaluation 1 (CCK-8), MDA-MB-231; assay type: cell-based
Experimental: as §1

[3] = test system: acute myeloid leukemia cell line U937; assay: Cancer cell proliferation inhibitory activity evaluation 1 (CCK-8), U937; assay type: cell-based; conditions: Homo sapiens, read-out: Cancer cell proliferation inhibitory activity U937
Experimental: as §1

[4] = test system: acute lymphoblastic leukemia cell line Jurkat; assay: Cancer cell proliferation inhibitory activity evaluation 2 (CCK-8), Jurkat; assay type: cell-based; conditions: Homo sapiens
[5] = test system: gastric cancer cell line AGS; assay: Cancer cell proliferation inhibitory activity evaluation 2 (CCK-8), AGS; assay type: cell-based; conditions: Homo sapiens, read-out: Cancer cell proliferation inhibitory activity AGS
[6] = test system: acute myeloid leukemia cell line U937; assay: Cancer cell proliferation inhibitory activity evaluation 2 (CCK-8), U937; assay type: cell-based; conditions: Homo sapiens, read-out: Cancer cell proliferation inhibitory activity U937
[7] = test system: colorectal cancer cell line HT-29; assay: Cancer cell proliferation inhibitory activity evaluation 1 (CCK-8), HT-29; assay type: cell-based; conditions: Homo sapiens, read-out: Cancer cell proliferation inhibitory activity HT29
Experimental: as §1

MLK3 = MLK3 (Homo sapiens (Human), UniProt Q16584); assay: Evaluation of inhibitory activity of enzyme units, MLK3 ([γ-33P]-ATP filter assay)
MLK3, sequence (Q16584 whole entry, looked up): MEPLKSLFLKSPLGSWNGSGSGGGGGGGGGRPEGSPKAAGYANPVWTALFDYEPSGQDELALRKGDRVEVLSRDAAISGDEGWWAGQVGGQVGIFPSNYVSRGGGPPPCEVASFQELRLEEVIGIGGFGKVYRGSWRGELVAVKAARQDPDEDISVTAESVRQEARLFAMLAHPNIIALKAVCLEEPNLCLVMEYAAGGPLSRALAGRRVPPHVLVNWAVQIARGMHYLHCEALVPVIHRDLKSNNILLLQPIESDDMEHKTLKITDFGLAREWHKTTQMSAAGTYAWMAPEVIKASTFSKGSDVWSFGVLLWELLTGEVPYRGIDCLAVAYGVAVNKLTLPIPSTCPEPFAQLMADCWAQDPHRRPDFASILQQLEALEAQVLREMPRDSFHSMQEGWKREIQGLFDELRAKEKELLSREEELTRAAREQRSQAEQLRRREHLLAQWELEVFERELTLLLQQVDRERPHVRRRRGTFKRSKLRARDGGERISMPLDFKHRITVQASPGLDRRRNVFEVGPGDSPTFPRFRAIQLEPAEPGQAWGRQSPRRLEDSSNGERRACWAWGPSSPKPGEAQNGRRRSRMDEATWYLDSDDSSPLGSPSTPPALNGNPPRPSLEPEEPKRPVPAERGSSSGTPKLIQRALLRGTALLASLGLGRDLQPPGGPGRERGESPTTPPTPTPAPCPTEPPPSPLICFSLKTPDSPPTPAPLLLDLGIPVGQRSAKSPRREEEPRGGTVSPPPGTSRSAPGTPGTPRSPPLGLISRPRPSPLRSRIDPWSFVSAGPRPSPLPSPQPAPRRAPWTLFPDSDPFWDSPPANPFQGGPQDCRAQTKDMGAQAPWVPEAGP

MLK2 = MLK2 (Homo sapiens (Human), UniProt Q02779); assay: Evaluation of inhibitory activity of enzyme units, MLK2 ([γ-33P]-ATP filter assay); assay type: biochemical
MLK2, sequence (Q02779 whole entry, looked up): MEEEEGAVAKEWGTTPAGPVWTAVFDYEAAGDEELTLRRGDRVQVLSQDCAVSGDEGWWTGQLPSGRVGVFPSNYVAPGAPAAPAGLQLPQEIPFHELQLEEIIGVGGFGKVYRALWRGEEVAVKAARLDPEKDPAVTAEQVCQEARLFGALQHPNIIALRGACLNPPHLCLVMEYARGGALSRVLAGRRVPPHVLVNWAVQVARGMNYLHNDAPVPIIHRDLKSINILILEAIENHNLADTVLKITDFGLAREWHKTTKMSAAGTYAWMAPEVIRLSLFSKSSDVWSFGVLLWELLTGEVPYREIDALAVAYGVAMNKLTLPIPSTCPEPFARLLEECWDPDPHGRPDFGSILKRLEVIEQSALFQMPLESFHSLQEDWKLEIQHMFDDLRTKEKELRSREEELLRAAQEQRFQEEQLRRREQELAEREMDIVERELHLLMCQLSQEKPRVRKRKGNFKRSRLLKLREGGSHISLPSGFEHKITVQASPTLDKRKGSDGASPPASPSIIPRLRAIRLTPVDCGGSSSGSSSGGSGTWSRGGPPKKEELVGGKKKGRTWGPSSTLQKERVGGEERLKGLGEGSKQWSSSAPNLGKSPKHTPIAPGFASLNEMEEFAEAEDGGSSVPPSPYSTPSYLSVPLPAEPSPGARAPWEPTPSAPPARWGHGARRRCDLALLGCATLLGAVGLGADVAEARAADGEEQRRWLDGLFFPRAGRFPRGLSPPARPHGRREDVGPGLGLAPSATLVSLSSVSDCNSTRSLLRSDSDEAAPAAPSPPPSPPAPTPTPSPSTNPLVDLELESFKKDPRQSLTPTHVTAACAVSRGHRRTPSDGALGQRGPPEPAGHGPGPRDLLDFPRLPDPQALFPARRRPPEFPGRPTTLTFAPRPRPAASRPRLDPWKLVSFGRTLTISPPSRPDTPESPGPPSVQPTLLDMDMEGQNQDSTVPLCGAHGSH

LRRK2 mutant (G2019S) = LRRK2 mutant (G2019S) (Homo sapiens (Human), UniProt Q5S007, G2019S); assay: Evaluation of inhibitory activity against LRRK2 (affinity bead competition binding), G2019S mutant; conditions: read-out: Residual active values (%) LRRK2(G2019S)
LRRK2 mutant (G2019S), sequence (Q5S007 whole entry G2019S, looked up): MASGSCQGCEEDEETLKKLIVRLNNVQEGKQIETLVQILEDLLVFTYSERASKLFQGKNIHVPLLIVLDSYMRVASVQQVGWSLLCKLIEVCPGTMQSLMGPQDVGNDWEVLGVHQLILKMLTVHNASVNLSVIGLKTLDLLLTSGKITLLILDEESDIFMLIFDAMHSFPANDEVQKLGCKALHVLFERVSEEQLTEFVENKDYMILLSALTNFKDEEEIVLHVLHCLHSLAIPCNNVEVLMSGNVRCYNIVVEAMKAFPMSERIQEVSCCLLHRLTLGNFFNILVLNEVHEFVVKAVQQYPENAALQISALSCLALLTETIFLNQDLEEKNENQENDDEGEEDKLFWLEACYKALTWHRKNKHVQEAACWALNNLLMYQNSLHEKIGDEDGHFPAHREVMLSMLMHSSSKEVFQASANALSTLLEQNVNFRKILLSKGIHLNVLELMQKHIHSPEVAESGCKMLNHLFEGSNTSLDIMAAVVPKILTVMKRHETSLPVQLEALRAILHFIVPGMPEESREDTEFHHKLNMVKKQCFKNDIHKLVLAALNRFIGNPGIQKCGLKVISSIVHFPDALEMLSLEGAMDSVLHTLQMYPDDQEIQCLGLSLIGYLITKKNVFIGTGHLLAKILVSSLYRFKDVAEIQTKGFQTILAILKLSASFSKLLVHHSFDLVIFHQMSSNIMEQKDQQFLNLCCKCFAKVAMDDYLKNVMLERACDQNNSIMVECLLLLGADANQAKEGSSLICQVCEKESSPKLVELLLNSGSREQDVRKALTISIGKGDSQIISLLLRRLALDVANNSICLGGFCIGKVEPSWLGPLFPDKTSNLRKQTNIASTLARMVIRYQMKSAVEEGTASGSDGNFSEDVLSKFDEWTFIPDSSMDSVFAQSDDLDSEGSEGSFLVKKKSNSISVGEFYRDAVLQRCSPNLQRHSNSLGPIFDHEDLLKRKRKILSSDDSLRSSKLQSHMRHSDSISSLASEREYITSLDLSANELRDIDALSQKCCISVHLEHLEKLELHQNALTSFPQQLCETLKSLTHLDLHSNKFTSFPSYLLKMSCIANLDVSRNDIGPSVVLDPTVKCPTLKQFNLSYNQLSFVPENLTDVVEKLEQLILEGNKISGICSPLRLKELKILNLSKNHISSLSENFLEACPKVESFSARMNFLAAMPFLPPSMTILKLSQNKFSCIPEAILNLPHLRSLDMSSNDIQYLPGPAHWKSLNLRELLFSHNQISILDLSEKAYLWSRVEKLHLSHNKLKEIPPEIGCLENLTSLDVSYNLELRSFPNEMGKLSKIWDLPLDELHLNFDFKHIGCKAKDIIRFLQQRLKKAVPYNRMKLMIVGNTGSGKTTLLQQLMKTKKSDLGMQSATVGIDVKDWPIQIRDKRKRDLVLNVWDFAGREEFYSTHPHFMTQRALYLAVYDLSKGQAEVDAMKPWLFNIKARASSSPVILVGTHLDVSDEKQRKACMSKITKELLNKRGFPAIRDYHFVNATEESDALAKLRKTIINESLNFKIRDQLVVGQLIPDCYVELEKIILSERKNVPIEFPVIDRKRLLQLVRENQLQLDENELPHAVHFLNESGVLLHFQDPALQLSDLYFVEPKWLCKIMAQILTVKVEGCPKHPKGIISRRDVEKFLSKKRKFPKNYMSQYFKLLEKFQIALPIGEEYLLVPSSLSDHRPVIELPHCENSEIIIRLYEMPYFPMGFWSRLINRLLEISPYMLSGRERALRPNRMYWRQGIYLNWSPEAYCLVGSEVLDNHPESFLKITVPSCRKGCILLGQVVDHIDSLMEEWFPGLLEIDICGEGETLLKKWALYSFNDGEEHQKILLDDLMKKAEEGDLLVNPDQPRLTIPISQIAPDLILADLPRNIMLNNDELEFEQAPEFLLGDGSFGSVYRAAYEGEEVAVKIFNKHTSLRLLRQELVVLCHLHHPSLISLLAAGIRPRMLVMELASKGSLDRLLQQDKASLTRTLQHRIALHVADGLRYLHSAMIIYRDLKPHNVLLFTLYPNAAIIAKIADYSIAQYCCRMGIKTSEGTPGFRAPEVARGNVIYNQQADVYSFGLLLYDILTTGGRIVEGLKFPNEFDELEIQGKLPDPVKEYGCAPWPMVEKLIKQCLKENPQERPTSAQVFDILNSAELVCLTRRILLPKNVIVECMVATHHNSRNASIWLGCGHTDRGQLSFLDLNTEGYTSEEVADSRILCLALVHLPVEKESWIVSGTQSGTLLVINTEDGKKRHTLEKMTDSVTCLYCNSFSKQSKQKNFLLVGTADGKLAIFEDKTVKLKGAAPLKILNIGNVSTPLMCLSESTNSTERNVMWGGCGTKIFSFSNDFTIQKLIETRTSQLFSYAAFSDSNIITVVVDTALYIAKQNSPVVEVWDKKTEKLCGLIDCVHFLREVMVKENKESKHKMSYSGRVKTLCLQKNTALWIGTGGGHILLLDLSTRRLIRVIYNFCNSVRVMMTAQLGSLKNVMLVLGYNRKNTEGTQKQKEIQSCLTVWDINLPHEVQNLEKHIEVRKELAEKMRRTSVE
Experimental: (§2) In order to identify the activity inhibitory effect on the LRRK2 wild-type and LRRK2 mutant (G2019S) kinase of the example compound according to the present disclosure, BL21-derived E. coli bacteria (E. coli) were cultured in a 24-well plate until the growth phase (log phase). After culturing, T7 phage tagged with LRRK2 wild-type or LRRK2 mutant (G2019S) was used to infect the multiplicity of infection (MOI) at 0.4. Thereafter, the E. coli bacteria were stirred at 32° C. for 90 to 150 minutes to allow dissolution. The lysate of E. coli bacteria was centrifuged (6,000×g) and filtered (0.2 μm), and the obtained tagged T7 phage […] a DNA-tagged kinase protein (LRRK2 or LRRK2 G2019S) was obtained.
(§3) After blocking the biotinylated ligand with extra biotin, it is washed with Pierce's buffer, SeaBlock (1% BSA, 0.05% Tween 20, 1 mM DTT) to remove unbound ligand and reduce non-specific binding.
(§4) The compound was prepared at a concentration of 40× in 100% DMSO and used after dilution, and all binding reactions were performed in a final volume of 0.02 ml in a 384-well plate.
(§5) The activity inhibitory effect on the LRRK2 wild-type and LRRK2 mutant (G2019S) kinases of the example compounds according to the present disclosure was measured and shown in Table 10 below.

TGF-β1 = assay: Fibrosis inhibition evaluation 2, palmitic acid-induced HepG2, real-time PCR, TGF-β1
[8] = test system: human lung cancer cell line A549; assay: Cancer cell proliferation inhibitory activity evaluation 2 (CCK-8), A549; assay type: cell-based; conditions: A549, 10 μM, 72 hours, CCK-8, read-out: Cancer cell proliferation inhibitory activity A549
LRRK2 wild-type = LRRK2 wild-type (Homo sapiens (Human), UniProt Q5S007); assay: Evaluation of inhibitory activity against LRRK2 (affinity bead competition binding), wild-type; conditions: read-out: Residual active values (%) LRRK2
LRRK2 wild-type, sequence (Q5S007 whole entry, looked up): as the sequence (Q5S007 whole entry G2019S, looked up) above, with S2019G counted along it
Experimental: as §2, §3, §4, §5

[9] = test system: gastric cancer cell line Hs746T; assay: Cancer cell proliferation inhibitory activity evaluation 2 (CCK-8), Hs746T; assay type: cell-based; conditions: Homo sapiens, 10 μM, 72 hours, CCK-8, read-out: Cancer cell proliferation inhibitory activity Hs746T
Fibronectin-1 = assay: Fibrosis inhibition evaluation 2, palmitic acid-induced HepG2, real-time PCR, Fibronectin-1
[10] = MDA-MB-231, 10 μM, 72 hours, CCK-8, read-out: Cancer cell proliferation inhibitory activity MDAMB231
[11] = U-937, 10 μM, 72 hours, CCK-8 (Table 2)
[12] = 10 μM, 72 hours, CCK-8, read-out: Cancer cell proliferation inhibitory activity Jurkat
[13] = U-937, 10 μM, 72 hours, CCK-8 (Table 3)

| Structure (SMILES) | inhibition at 10 µM ([1]; K562, 10 μM, 72 hours, CCK-8) [%] | inhibition at 10 µM [2, 10] [%] | inhibition at 10 µM [3, 11] [%] | inhibition at 10 µM [4, 12] [%] | inhibition at 10 µM ([5]; 10 μM, 72 hours, CCK-8) [%] | inhibition at 10 µM [6, 13] [%] | inhibition at 10 µM ([7]; HT-29, 10 μM, 72 hours, CCK-8) [%] | IC50 (MLK3; read-out: IC50(nM) MLK3) [nM] | further results |
| --- | --- | --- | --- | --- | --- | --- | --- | --- | --- |
| Cc1cc(-c2nc3c(Nc4cccc(S(N)(=O)=O)c4)c(Br)cnc3[nH]2)c(C)n1-c1ccc(N2CCOCC2)cc1 [Example 40, 3-((6-bromo-2-(2,5-dimethyl-1-(4-morpholinophenyl)-1H-pyrrol-3-yl)-3H-imidazo[4,5-b]pyridine-7-yl)amino)benzenesulfonamide] | 10 to 50 | 10 to 50 | > 50 | > 50 | 10 to 50 | 10 to 50 | > 50 | 68 | – |
| CCS(=O)(=O)N1CC[C@H](Nc2c(Br)cnc3[nH]c(-c4cc(C)n(-c5cccc(C(=O)N6CCOCC6)c5)c4C)nc23)C1 [Example 6, (S)-(3-(3-(6-bromo-7-((1-(ethylsulfonyl)pyrrolidine-3-yl)amino)-3H-imidazo[4,5-b]pyridine-2-yl)-2,5-dimethyl-1H-pyrrol-1-yl)phenyl) (morpholino) methanone] | – | – | – | – | – | – | – | 6 | IC50 (MLK2): 181 nM |
| CCS(=O)(=O)N1CC[C@H](Nc2c(Br)cnc3[nH]c(-c4cc(C)n(-c5ccccc5Cl)c4C)nc23)C1 [Example 16, 6-bromo-2-(1-(2-chlorophenyl)-2,5-dimethyl-1H-pyrrol-3-yl)-N—((S)-1-(ethylsulfonyl)pyrrolidine-3-yl)-3H-imidazo[4,5-b]pyridine-7-amine] | > 50 | 10 to 50 | > 50 | 10 to 50 | 10 to 50 | < 10 | 10 to 50 | – | IC50 (MLK3): 11 nM |
| CCS(=O)(=O)N1CC[C@H](Nc2c(Br)cnc3[nH]c(-c4cc(C)n(-c5ccc(N6CCOCC6)cc5)c4C)nc23)C1 [Example 1, (S)-6-bromo-2-(2,5-dimethyl-1-(4-morpholinophenyl)-1H-pyrrol-3-yl)-N-(1-(ethylsulfonyl)pyrrolidine-3-yl)-3H-imidazo[4,5-b]pyridine-7-amine] | < 10 | 10 to 50 | 10 to 50 | 10 to 50 | 10 to 50 | 10 to 50 | 10 to 50 | – | IC50 (MLK3): 4 nM |
| CCS(=O)(=O)N1CC[C@H](Nc2c(Br)cnc3[nH]c(-c4cc(C)n(-c5c(Cl)cccc5Cl)c4C)nc23)C1 [Example 13, (S)-6-bromo-2-(1-(2,6-dichlorophenyl)-2,5-dimethyl-1H-pyrrol-3-yl)-N-(1-(ethylsulfonyl)pyrrolidine-3-yl)-3H-imidazo[4,5-b]pyridine-7-amine] | – | – | – | – | – | – | – | 7 | inhibition at 10 µM ([1]; K562, 72 h): 10 to 50%; inhibition at 10 µM ([2]; MDA-MB-231, 72 h, read-out: Cancer cell proliferation inhibitory activity MDAMB231): 10 to 50%; inhibition at 10 µM ([3]; U-937, 72 h): > 50%; inhibition at 10 µM ([4]; 72 h, read-out: Cancer cell proliferation inhibitory activity Jurkat): > 50%; inhibition at 10 µM ([5]; 72 h): > 50%; inhibition at 10 µM ([6]; U-937, 72 h): 10 to 50%; inhibition at 10 µM ([7]; HT-29, 72 h): 10 to 50% |
| Cc1cc(-c2nc3ncc(Br)c(Nc4cccc(S(N)(=O)=O)c4)c3[nH]2)c(C)n1-c1ccc(OCCN2CCOCC2)cc1 [Example 39, 3-((6-bromo-2-(2,5-dimethyl-1-(4-(2-morpholinoethoxy)phenyl)-1H-pyrrol-3-yl)-1H-imidazo[4,5-b]pyridine-7-yl)amino)benzenesulfonamide] | 10 to 50 | 10 to 50 | < 10 | > 50 | > 50 | 10 to 50 | 10 to 50 | 72 | – |
| Cc1ccc(NS(C)(=O)=O)cc1-n1c(C)cc(-c2nc3c(Nc4cccc(S(N)(=O)=O)c4)c(Br)cnc3[nH]2)c1C [Example 33, 3-((6-bromo-2-(2,5-dimethyl-1-(2-methyl-5-(methylsulfonamido)phenyl)-1H-pyrrol-3-yl)-3H-imidazo[4,5-b]pyridine-7-yl)amino)benzenesulfonamide] | < 10 | 10 to 50 | 10 to 50 | 10 to 50 | 10 to 50 | < 10 | < 10 | 38 | – |
| Cc1cc(-c2nc3c(Nc4cccc(S(N)(=O)=O)c4)c(Br)cnc3[nH]2)c(C)n1-c1cc(Cl)ccc1Cl [Example 35, 3-((6-bromo-2-(1-(2,5-dichlorophenyl)-2,5-dimethyl-1H-pyrrol-3-yl)-3H-imidazo[4,5-b]pyridine-7-yl)amino)benzenesulfonamide] | < 10 | 10 to 50 | 10 to 50 | 10 to 50 | 10 to 50 | 10 to 50 | > 50 | – | IC50 (MLK3): 46 nM |
| Cc1cc(-c2nc3c(Nc4cccc(S(N)(=O)=O)c4)c(Br)cnc3[nH]2)c(C)n1-c1ccccc1Cl [Example 31, 3-((6-bromo-2-(1-(2-chlorophenyl)-2,5-dimethyl-1H-pyrrol-3-yl)-3H-imidazo[4,5-b]pyridine-7-yl)amino)benzenesulfonamide] | 10 to 50 | < 10 | 10 to 50 | 10 to 50 | 10 to 50 | 10 to 50 | > 50 | 35 | – |
| Cc1cc(-c2nc3ncc(Br)c(Nc4cccc(S(N)(=O)=O)c4)c3[nH]2)c(C)n1-c1cccc(OCCN2CCOCC2)c1 [Example 38, 3-((6-bromo-2-(2,5-dimethyl-1-(3-(2-morpholinoethoxy)phenyl)-1H-pyrrol-3-yl)-1H-imidazo[4,5-b]pyridine-7-yl)amino)benzenesulfonamide] | > 50 | 10 to 50 | > 50 | > 50 | > 50 | 10 to 50 | > 50 | 52 | – |
| CCS(=O)(=O)N1CC[C@H](Nc2c(Br)cnc3nc(-c4cc(C)n(-c5cccc(OCCN6CCOCC6)c5)c4C)[nH]c23)C1 [Example 3, (S)-6-bromo-2-(2,5-dimethyl-1-(3-(2-morpholinoethoxy)phenyl)-1H-pyrrol-3-yl)-N-(1-(ethylsulfonyl)pyrrolidine-3-yl)-1H-imidazo[4,5-b]pyridine-7-amine] | > 50 | > 50 | > 50 | > 50 | – | 10 to 50 | 10 to 50 | – | remaining binding at 0.1 µM (LRRK2 mutant (G2019S); 100 nM): 3.5%; remaining binding at 0.5 µM (LRRK2 mutant (G2019S); 500 nM): 0.9%; Relative degree of expression inhibition (%) TGF-β1 (TGF-β1): 109.05%; inhibition at 10 µM [8]: 10 to 50%; remaining binding at 0.1 µM (LRRK2 wild-type; 100 nM): 17%; remaining binding at 0.5 µM (LRRK2 wild-type; 500 nM): 3.1%; inhibition at 10 µM [9]: > 50%; Relative degree of expression inhibition (%) Fibronectin-1 (Fibronectin-1): 72.85% |
